What was measured:
[1] = tested on: native GABAA receptors; test: GABA-evoked whole-cell currents in acutely isolated TMN neurons (wild type); format: cell-based, mouse
Method: Recordings from histaminergic neurons in male Wistar rat (22–26 day old) or 30–60 day old mouse (SV129, histidine decarboxylase deficient HDC−/− or their wild type littermates) hypothalamic slices were performed as previously described. Slices were obtained between 9 and 11 a.m. In the beginning of whole-cell voltage clamp recordings TMN neurons were identified with the help of DIC microscopy and electrophysiological criteria as previously described. Inhibitory postsynaptic currents (IPSCs) were evoked by local stimulation through a bipolar stainless-steel stimulating electrode (50 µm; WPI, UK). The stimulation of axonal endings coming to TMN from ventrolateral preoptic area (VLPO) was done as described in [22]. […] Individual neurons were separated by vibrodissociation after brief preincubation with papain from the hypothalamic slices of mice or rats and identified as TMN neurons according to their size and shape. Identification was confirmed post hoc with the single-cell RT-PCR (all data presented in the manuscript were obtained from histidine decarboxylase-expressing neurons), [40]. TMN neurons from HDC−/− mice were identified by the expression of peripherin [16]. Whole-cell voltage-clamp recordings from isolated neurons were done with an EPC-9 amplifier and TIDA for Windows (HEKA, Lambrecht, Germany) at room temperature. Membrane potentials were not corrected for liquid junction potential (5.6 mV, calculated with LJPCalc, Barry, 1994). The intracellular solution was composed of (in mM) 140 KCl, 2 MgCl2, 0.5 CaCl2, 5 EGTA, 2 ATP and 10 HEPES (pH 7.2 adjusted with NaOH). A fast perfusion technique was used for application of ligands and modulators of fast ionotropic receptors, [41]. […] EC50 is the ligand concentration producing a half-maximal response, [ligand] is ligand concentration, and n is the Hill slope. Hill coefficients were obtained from the slope of the log/log plot of the dose-response curves. […] Steady-state amplitudes of the responses were used for the construction of dose-response plots if not mentioned otherwise.

[2] = biological target: T1, β3 homopentameric GABAA receptors (Homo sapiens, UniProt P28472); test: Block of spontaneous openings of β3 homopentameric receptors (outward shift of baseline current); format: cell-based
T1 construct: expressed in transfected cells; host or cells: HEK293
Method: (§1) HEK 293 cells were obtained from DSM (Deutsche Sammlung von Mikroorganismen und Zellkulturen GmbH, DSM, Braunschweig). They were grown and maintained according to published standard protocols. Briefly, cells were grown in minimal essential medium supplemented with 10% fetal bovine serum, 100units/ml penicillin and streptomycin and 2 mM L-glutamine and splitted once per week. Semiconfluent cells were transfected on the third day after splitting with the help of Lipofectamine 2000 (Invitrogen), recordings were done 48–72 hrs after transfection.
(§2) The GABAAR subunit cDNAs, generously donated by G.Gisselmann (rat α1, mouse γ2L, rat β1, β2 and human β3 [26]) and J.H. Steinbach (rat α1V256S [28] and rat α1Q241L [44]), were subcloned into pcDNA3 (Invitrogen, Karlsruhe, Germany) and applied in a ratio 1∶1∶1 for the α1βxγ2L receptor and 1∶1 for α1β3 or β3γ2L receptors. […] For each receptor type patch clamp recordings were obtained from at least three separate transfections. Whole-cell patch clamp recordings were done in a similar extracellular solution as for the native cells (see above) except that the concentration of MgCl2 was reduced to 1.2 mM. Intracellular electrodes contained 140 mM CsCl (instead of KCl), pH adjusted with CsOH. The voltage was held at −40 mV.

[3] = tested on: HDC−/− mice; test: Polygraphic (EEG/EMG) sleep-wake recording in histamine-deficient mice; format: in vivo, mouse
Method: Animal experiments were conducted according to the Animal Protection Law of the Federal Republic of Germany and the local guidelines (Bezirksregierung Duesseldorf) and were in accordance with the European Communities Council directive regarding care and use of animals for experimental procedures (86/609/EEC). The general protocol of sleep-wake recording and experiment in the mouse was approved by the ethic committee of Claude Bernard University of Lyon. All efforts were made to minimize the number of animals and their suffering. At the age of 12 weeks and with a body weight of 30±2 g HDC wild type and knockout mice used for EEG and sleep-wake studies were chronically implanted, under deep gas anesthesia using isoflurane (2%, 200 ml/min) and a TEM anesthesia system (Bordeaux, France), with six cortical electrodes (gold-plated tinned copper wire, Ø = 0.4 mm, Filotex, Draveil, France) and three neck muscle electrodes (fluorocarbon-coated gold-plated stainless steel wire, Ø = 0.03 mm, Cooner Wire Chatworth, CA, U.S.A.) to record the electroencephalogram (EEG) and electromyogram (EMG) and to monitor the sleep-wake cycle. Finally, the electrode assembly was anchored and fixed to the skull with Super-Bond (Sun Medical Co., Shiga, Japan) and dental cement. This implantation allows stable and long-lasting polygraphic recordings.
After surgery, the animals were housed individually in barrels placed in an insulated sound-proof recording room maintained at an ambient temperature of 22±1°C and on a 12 h light/dark cycle (lights-on at 7 a.m.), standard food and water being available ad libitum. After a 7-days recovery period, mice were habituated to the recording cable for 7 days before polygraphic recordings were started. Cortical EEG (contralateral frontoparietal leads) and EMG signals were amplified, digitized with a resolution of 256 and 128 Hz, respectively, and computed on a CED 1401 Plus (Cambridge, UK). Using a Spike2 script and with the assistance of spectral analysis using the fast Fourier transform, polygraphic records were visually scored by 30-sec epochs for wakefulness (W), slow wave sleep (SWS), and paradoxical sleep (PS) according to previously described criteria validated for mice.
Animals were subjected to 12 h sleep-wake recordings following administration of URSOFALK (clinically used UDCA, 32 mg/kg) through the oral route (per os) at 10 a.m. (during the sleepy period) or at 7 p.m. (during the active period). Each animal received twice single dose of UDCA and twice equal volume of vehicle. There was an interval of 7 days between any two administrations. UDCA or vehicle was applied at random. The waking, slow wave sleep or paradoxical sleep amounts were compared between vehicle and UCDA within the same animal, the differences being averaged within the groups. […]

[4] = biological target: T2, homopentameric β3 GABAA receptors (Homo sapiens, UniProt P28472); test: Patch-clamp of β3 homopentameric receptors in HEK293 cells, histamine-evoked currents; format: cell-based; details: histamine 5 mM
T2 construct: expressed in transfected cells; host or cells: HEK293
Method: as §1, §2

[5] = tested on: AMPA-receptor; test: Kainate-evoked AMPA-receptor mediated currents in isolated neurons; format: cell-based
Method: Recordings from histaminergic neurons in male Wistar rat (22–26 day old) or 30–60 day old mouse (SV129, histidine decarboxylase deficient HDC−/− or their wild type littermates) hypothalamic slices were performed as previously described. Slices were obtained between 9 and 11 a.m. In the beginning of whole-cell voltage clamp recordings TMN neurons were identified with the help of DIC microscopy and electrophysiological criteria as previously described. Inhibitory postsynaptic currents (IPSCs) were evoked by local stimulation through a bipolar stainless-steel stimulating electrode (50 µm; WPI, UK). The stimulation of axonal endings coming to TMN from ventrolateral preoptic area (VLPO) was done as described in [22]. […] Individual neurons were separated by vibrodissociation after brief preincubation with papain from the hypothalamic slices of mice or rats and identified as TMN neurons according to their size and shape. Identification was confirmed post hoc with the single-cell RT-PCR (all data presented in the manuscript were obtained from histidine decarboxylase-expressing neurons), [40]. TMN neurons from HDC−/− mice were identified by the expression of peripherin [16]. […] Membrane potentials were not corrected for liquid junction potential (5.6 mV, calculated with LJPCalc, Barry, 1994). […]

[6] = biological target: T3, α1β3 GABAA receptors (UniProt P28472+P62813); test: Patch-clamp of recombinant α1β3 GABAAR in HEK293 cells; format: cell-based, rat α1, human β3
T3 construct: expressed in transfected cells; host or cells: HEK293
Method: as §1, §2

[7] = UDCA 32 mg/kg per os at 7 p.m., vs vehicle

T3 sequence (P62813 28-455): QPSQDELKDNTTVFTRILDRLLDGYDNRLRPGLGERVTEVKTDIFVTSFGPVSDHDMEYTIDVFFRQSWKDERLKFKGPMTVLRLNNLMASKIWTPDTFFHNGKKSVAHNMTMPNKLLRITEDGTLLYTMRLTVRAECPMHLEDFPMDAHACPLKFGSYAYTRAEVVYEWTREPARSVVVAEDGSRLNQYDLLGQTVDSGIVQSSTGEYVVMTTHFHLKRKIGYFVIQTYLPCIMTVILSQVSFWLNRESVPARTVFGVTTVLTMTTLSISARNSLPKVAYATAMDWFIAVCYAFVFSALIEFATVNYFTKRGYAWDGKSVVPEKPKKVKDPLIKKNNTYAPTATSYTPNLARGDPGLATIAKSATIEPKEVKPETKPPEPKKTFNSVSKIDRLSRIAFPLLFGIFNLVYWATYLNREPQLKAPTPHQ
T3 sequence (P28472 26-473): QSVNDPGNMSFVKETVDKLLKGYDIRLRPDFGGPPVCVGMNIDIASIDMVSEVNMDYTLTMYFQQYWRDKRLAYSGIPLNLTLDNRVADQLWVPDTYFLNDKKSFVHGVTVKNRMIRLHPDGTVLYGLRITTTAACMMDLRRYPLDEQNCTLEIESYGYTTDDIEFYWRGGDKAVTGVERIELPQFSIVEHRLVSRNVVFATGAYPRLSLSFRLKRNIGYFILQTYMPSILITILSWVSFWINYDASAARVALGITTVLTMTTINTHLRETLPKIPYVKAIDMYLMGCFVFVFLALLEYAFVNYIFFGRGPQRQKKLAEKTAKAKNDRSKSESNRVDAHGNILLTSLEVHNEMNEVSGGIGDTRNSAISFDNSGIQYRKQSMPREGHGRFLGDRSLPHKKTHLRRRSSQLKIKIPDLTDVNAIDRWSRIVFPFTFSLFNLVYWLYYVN
T1 sequence (P28472 26-473): as above
T2 sequence (P28472 26-473): as above

SMILES: C[C@H](CCC(=O)O)[C@H]1CC[C@H]2[C@@H]3[C@@H](O)C[C@@H]4C[C@H](O)CC[C@]4(C)[C@H]3CC[C@]12C [UDCA, ursodeoxycholic acid]
- deactivation time constant (τoff) [1]: prolonged
- peak current amplitude of maximal GABA-mediated whole-cell currents [1]: not affected
- use dependence of block of GABA currents [1]: not use dependent
- reversibility of block of GABA currents ([1]; GABA 10 µM, 1 s): fully reversible
- concentration at which inhibition of GABA-evoked currents and sIPSCs starts ([1]; acutely isolated histaminergic neurons): 10 µM
- macroscopic apparent desensitization of responses to saturating GABA ([1]; decrease of fast decay time constant and steady-state/peak ratio): concentration-dependently enhanced
- IC50 ([1]; native receptors, steady-state currents, read-out: IC50 of inhibition of GABA-evoked currents): 92 µM
- additivity of outward currents of maximal UDCA (300, 600 µM) and picrotoxin (25 µM) [2]: not additive
- IC50 ([2]; roughly estimated, read-out: half-maximal effect on outward shift of baseline current): ~100 µM
- sleep wake states ([3]; 32 mg/kg orally at 10 a.m. (quiet period), n = 7): did not affect
- slow wave sleep (SWS) and paradoxical sleep (PS) [3, 7]: tended to be increased
- total sleep [3, 7]: increased
- waking [3, 7]: significantly decreased
- Hill coefficient nH of UDCA block [4]: 0.8
- IC50 ([4]; read-out: IC50 of block of histamine-evoked currents): 7.4 ± 2 µM
- AMPA-receptor mediated currents ([5]; 100 µM): did not affect
- AMPA-receptor mediated currents (responses to 150 µM of kainate) ([5]; up to […]): did not affect
- Hill coefficient nH of UDCA block ([6]; maximal GABA): 0.65
- IC50 ([6]; read-out: IC50 of block of GABA-evoked steady-state currents): 81 µM

From paper PMC3412845, “Waking Action of Ursodeoxycholic Acid (UDCA) Involves Histamine and GABAA Receptor Block” (PLoS ONE, 2012)
